The text below walks through data of patent US8906852B2 (MethylGene Inc., priority 2010, dated 2014).

T1 sequence (P35968 806-1356): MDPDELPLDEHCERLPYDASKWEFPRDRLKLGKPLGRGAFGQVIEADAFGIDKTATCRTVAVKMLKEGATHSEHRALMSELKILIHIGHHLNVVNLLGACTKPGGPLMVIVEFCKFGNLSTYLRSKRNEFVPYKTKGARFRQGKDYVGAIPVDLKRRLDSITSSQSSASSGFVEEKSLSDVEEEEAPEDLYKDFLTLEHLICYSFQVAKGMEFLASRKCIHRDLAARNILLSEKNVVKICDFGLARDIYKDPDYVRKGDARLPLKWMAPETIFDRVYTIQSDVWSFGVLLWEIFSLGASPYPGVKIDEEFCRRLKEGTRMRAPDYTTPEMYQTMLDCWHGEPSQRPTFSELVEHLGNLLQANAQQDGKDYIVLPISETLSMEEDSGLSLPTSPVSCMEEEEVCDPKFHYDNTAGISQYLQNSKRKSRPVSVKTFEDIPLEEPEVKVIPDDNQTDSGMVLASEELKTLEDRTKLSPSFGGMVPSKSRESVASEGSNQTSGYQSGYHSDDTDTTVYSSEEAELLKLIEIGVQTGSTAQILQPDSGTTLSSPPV

This assay concerns the target T1, VEGFR/KDR (Homo sapiens, UniProt P35968).
T1 construct: made in house; host or cells: Sf9 cells (Spodoptera frugiperda), baculovirus
The assay is described as follows: VEGFR/KDR kinase inhibition, DELFIA assay. Type of assay: biochemical. To be noted: ATP 0.6 uM (2x Km), enzyme 5 nM. In outline:
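Enzyme (5 nM) pre-incubated 4 min on ice with inhibitor and Mg-ATP (0.6 uM, 2× Km), then reacted 10-30 min at 30° C on immobilized poly(Glu4,Tyr). EDTA-quenched phosphotyrosine detected with Europium-labeled antibody by time-resolved fluorescence; IC50 from concentration series.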
`O=C(Nc1ccc(Oc2ccnc3cc(-c4ccc(CNc5cccc(OCCN6CCOCC6)c5)cn4)sc23)c(F)c1)NC1CC1` [Compound 341, 1-cyclopropyl-3-(3-fluoro-4-(2-(5-((3-(2-morpholinoethoxy)phenylamino)methyl)pyridin-2-yl)thieno[3,2-b]pyridin-7-yloxy)phenyl)urea] had an IC50 of less than 50 nM. Compound `COCCNCCc1ccc(-c2cc3nccc(Oc4ccc(NC(=O)C5(C(=O)Nc6ccc(F)cc6)CC5)cc4F)c3s2)nc1` [Compound 185, N-(3-fluoro-4-(2-(5-(2-(2-methoxyethylamino)ethyl)pyridin-2-yl)thieno[3,2-b]pyridin-7-yloxy)phenyl)-N-(4-fluorophenyl)cyclopropane-1,1-dicarboxamide] had an IC50 of less than 50 nM.

Compound `Cn1c(C(=O)N2CCCC2)cnc1-c1cc2nccc(Oc3ccc(NC(=O)NC4CC4)cc3F)c2s1` [Compound 222, 1-cyclopropyl-3-(3-fluoro-4-(2-(1-methyl-5-(pyrrolidine-1-carbonyl)-1H-imidazol-2-yl)thieno[3,2-b]pyridin-7-yloxy)phenyl)urea] gave an IC50 of less than 50 nM. For `O=C(Nc1ccc(Oc2ccnc3cc(-c4ccc(C(=O)N5CCCC5)cc4)sc23)c(F)c1)NC1CC1` [Compound 129, 1-cyclopropyl-3-(3-fluoro-4-(2-(4-(pyrrolidine-1-carbonyl)phenyl)thieno[3,2-b]pyridin-7-yloxy)phenyl)urea], the IC50 was less than 50 nM. Next, `COCCOCCOCCOCCNCc1ccc(-c2cc3nccc(Oc4ccc(NC(=O)NC5CC5)c(F)c4F)c3s2)nc1` [Compound 171, 1-(4-(2-(5-5,8,11,14-tetraoxa-2-azapentadecylpyridin-2-yl)thieno[3,2-b]pyridin-7-yloxy)-2,3-diiluorophenyl)-3-cyclopropylurea]: less than 50 nM; `O=C(O)CCC(=O)N1CC=C(c2cc3nccc(Oc4ccc(NC(=O)NC5CC5)cc4F)c3s2)CC1` [Compound 273, 4-(4-(7-(4-(3-cyclopropylureido)-2-fluorophenoxy)thieno[3,2-b]pyridin-2-yl)-5,6-dihydropyridin-1(2H)-yl)-4-oxobutanoic acid]: not below 250 nM; `O=C(O)CCCCCCCN1CCN(Cc2ccc(-c3cc4nccc(Oc5ccc(NC(=O)NC6CC6)cc5F)c4s3)nc2)CC1` [Compound 522, 8-(4-((6-(7-(4-(3-cyclopropylureido)-2-fluorophenoxy)thieno[3,2-b]pyridin-2-yl)pyridin-3-yl)methyl)piperazin-1-yl)octanoic acid]: less than 50 nM. Then `N[C@@H]1CCN(Cc2ccc(-c3cc4nccc(Oc5ccc(NC(=O)NC6CC6)cc5F)c4s3)nc2)C1=O` [Compound 109, (R)-1-(4-(2-(5-((3-amino-2-oxopyrrolidin-1-yl)methyl)pyridin-2-yl)thieno[3,2-b]pyridin-7-yloxy)-3-fluorophenyl)-3-cyclopropylurea], with less than 50 nM; and `O=C(O)CC(=O)N1CCN(Cc2ccc(-c3cc4nccc(Oc5ccc(NC(=O)NC6CC6)cc5F)c4s3)nc2)CC1` [Compound 510, 3-(4-((6-(7-(4-(3-cyclopropylureido)-2-fluorophenoxy)thieno[3,2-b]pyridin-2-yl)pyridin-3-yl)methyl)piperazin-1-yl)-3-oxopropanoic acid], with less than 50 nM. For the compound `NCC(=O)N1CCN(Cc2ccc(-c3cc4nccc(Oc5ccc(NC(=O)NC6CC6)cc5F)c4s3)nc2)CC1` [Compound 77, 1-(4-(2-(5-((4-(2-aminoacetyl)piperazin-1-yl)methyl)pyridin-2-yl)thieno[3,2-b]-pyridin-7-yloxy)-3-fluorophenyl)-3-cyclopropylurea], the IC50 was less than 50 nM.

Consider `CN(CCC(=O)O)C1CCN(Cc2ccc(-c3cc4nccc(Oc5ccc(NC(=O)NC6CC6)cc5F)c4s3)nc2)CC1` [Compound 424, 3-((1-((6-(7-(4-(3-Cyclopropylureido)-2-fluorophenoxy)thieno[3,2-b]pyridin-2-yl)pyridin-3-yl)methyl)piperidin-4-yl)(methyl)amino)propanoic acid], for which the IC50 was less than 50 nM.

What is called IC50 is the midpoint of a concentration-inhibition curve. A high value points to a need for much substance.
